We go through three compounds from publication PMC8058163 (Clinical pharmacology and therapeutics, 2020).

For data set [1], the target named is T1, OATP2B1 (Homo sapiens, UniProt O94956).
T1 sequence (O94956 1-709): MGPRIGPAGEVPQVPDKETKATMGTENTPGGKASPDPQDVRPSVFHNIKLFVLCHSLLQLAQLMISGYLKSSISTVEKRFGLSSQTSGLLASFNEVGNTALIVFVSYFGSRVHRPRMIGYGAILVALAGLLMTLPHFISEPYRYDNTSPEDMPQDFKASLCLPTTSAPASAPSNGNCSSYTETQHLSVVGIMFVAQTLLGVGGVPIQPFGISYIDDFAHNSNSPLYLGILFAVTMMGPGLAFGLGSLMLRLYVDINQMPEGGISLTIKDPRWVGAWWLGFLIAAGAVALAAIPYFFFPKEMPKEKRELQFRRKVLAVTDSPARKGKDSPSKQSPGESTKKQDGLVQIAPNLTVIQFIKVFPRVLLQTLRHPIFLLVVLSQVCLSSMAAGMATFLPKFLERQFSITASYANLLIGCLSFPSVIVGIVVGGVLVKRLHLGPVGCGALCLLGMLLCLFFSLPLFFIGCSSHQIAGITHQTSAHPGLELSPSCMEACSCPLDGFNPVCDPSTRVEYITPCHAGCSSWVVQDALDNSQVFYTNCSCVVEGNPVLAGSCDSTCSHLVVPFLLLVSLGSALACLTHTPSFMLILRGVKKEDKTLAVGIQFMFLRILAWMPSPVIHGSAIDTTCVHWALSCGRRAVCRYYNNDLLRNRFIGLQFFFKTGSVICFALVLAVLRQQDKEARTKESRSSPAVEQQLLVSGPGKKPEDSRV
The data set can be described thus: Transporter inhibition assay, OATP2B1. The note with it: for inhibition at 100 μM: cell line (HEK293 or MDCKII) stably expressing OATP2B1.

The target in data set [2] is MRP3 (Homo sapiens, UniProt O15438). The data set can be described thus: Transporter inhibition assay, MRP3.
In data set [3] the target is T2, MATE1 (Homo sapiens, UniProt Q96FL8).
T2 sequence (Q96FL8 1-570): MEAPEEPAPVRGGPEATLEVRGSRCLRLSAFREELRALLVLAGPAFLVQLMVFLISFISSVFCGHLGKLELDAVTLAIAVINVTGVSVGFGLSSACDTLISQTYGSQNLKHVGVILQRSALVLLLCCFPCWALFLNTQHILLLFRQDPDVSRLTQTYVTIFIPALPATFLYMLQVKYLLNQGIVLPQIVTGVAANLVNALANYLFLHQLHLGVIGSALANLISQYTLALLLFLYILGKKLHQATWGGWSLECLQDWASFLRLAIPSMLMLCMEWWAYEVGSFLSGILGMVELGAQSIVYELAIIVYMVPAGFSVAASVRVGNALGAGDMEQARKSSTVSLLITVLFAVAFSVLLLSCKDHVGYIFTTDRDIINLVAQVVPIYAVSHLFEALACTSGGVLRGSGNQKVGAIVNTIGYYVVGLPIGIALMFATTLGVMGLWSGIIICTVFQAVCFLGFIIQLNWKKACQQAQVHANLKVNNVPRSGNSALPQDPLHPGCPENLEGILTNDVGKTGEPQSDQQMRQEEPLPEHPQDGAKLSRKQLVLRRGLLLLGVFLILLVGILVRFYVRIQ
Nature of the data set: Transporter inhibition assay, MATE1.

Data set [4] addresses T3, NTCP (Homo sapiens, UniProt Q14973).
T3 sequence (Q14973 1-349): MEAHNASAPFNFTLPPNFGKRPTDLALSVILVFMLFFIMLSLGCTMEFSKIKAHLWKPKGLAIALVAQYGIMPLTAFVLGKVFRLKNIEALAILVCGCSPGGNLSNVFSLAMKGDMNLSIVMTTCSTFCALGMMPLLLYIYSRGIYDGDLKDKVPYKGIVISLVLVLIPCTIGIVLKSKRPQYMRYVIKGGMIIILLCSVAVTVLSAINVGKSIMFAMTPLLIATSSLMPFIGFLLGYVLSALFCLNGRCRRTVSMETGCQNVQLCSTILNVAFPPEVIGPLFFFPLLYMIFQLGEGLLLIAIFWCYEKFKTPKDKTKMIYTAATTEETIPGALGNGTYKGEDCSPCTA
Nature of the data set: Transporter inhibition assay, NTCP. Type of data set: cell-based. To be noted: alkaloids screened at 10 and 100 μM.

The target of data set [5] is T4, OAT3 (Homo sapiens, UniProt Q8TCC7).
T4 sequence (Q8TCC7 1-542): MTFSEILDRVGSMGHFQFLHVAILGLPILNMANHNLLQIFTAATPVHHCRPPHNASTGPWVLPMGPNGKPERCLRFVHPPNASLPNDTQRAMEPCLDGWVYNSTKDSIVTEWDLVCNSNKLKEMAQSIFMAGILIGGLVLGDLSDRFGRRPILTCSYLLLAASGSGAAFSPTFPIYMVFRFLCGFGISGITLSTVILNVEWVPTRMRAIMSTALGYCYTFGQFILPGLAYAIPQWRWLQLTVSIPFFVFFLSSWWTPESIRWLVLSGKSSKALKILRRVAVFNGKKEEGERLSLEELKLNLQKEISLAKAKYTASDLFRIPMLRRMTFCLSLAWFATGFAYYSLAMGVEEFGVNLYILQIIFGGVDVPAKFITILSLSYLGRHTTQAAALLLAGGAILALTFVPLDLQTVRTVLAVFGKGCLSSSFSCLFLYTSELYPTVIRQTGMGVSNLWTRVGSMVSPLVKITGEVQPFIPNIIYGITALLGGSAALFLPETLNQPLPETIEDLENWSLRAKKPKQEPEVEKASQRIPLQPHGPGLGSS
The data set can be described thus: Transporter inhibition assay, OAT3.

The target in data set [6] is BSEP (Homo sapiens, UniProt O95342). Nature of the data set: Transporter inhibition assay, BSEP.

Values joined by “and” are separate entries in the source; they are usually repeats but may differ in a detail not shown here. Equal values may be shown once. Read-outs that look alike come from different tables or passages of the source.

BSEP, sequence (O95342 whole entry): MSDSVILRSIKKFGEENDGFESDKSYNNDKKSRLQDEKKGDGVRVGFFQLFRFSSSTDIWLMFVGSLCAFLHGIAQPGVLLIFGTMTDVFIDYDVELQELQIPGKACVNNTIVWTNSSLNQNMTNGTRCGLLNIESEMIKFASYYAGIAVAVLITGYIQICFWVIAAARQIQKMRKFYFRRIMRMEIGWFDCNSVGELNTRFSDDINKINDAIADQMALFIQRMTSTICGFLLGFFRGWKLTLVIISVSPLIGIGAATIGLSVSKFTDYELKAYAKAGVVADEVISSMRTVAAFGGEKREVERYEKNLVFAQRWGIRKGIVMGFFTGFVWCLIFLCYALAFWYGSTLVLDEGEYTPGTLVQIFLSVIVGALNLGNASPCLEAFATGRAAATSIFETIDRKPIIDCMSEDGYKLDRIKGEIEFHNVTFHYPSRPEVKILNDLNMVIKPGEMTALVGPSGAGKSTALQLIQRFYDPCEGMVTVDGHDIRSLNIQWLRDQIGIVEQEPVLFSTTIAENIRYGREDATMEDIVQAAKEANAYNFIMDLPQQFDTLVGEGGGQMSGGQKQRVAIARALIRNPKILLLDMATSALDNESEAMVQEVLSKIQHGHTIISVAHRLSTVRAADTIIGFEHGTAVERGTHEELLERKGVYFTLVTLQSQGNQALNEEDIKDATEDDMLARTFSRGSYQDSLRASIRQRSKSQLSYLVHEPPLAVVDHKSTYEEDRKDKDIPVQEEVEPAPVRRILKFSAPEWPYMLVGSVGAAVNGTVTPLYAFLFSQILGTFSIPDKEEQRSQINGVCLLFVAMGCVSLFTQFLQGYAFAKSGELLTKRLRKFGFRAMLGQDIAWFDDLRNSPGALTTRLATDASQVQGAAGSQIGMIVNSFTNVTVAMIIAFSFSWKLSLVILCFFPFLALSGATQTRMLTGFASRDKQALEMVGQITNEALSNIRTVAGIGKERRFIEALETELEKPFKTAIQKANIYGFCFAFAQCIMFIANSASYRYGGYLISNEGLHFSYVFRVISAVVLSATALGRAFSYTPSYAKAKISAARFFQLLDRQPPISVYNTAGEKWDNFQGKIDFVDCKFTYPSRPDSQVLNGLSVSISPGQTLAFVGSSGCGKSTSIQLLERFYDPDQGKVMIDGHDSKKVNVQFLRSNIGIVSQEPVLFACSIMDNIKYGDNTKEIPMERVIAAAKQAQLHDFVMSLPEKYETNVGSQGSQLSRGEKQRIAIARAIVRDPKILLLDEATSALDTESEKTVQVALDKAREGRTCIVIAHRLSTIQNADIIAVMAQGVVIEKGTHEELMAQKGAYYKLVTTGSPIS
MRP3, sequence (O15438 whole entry): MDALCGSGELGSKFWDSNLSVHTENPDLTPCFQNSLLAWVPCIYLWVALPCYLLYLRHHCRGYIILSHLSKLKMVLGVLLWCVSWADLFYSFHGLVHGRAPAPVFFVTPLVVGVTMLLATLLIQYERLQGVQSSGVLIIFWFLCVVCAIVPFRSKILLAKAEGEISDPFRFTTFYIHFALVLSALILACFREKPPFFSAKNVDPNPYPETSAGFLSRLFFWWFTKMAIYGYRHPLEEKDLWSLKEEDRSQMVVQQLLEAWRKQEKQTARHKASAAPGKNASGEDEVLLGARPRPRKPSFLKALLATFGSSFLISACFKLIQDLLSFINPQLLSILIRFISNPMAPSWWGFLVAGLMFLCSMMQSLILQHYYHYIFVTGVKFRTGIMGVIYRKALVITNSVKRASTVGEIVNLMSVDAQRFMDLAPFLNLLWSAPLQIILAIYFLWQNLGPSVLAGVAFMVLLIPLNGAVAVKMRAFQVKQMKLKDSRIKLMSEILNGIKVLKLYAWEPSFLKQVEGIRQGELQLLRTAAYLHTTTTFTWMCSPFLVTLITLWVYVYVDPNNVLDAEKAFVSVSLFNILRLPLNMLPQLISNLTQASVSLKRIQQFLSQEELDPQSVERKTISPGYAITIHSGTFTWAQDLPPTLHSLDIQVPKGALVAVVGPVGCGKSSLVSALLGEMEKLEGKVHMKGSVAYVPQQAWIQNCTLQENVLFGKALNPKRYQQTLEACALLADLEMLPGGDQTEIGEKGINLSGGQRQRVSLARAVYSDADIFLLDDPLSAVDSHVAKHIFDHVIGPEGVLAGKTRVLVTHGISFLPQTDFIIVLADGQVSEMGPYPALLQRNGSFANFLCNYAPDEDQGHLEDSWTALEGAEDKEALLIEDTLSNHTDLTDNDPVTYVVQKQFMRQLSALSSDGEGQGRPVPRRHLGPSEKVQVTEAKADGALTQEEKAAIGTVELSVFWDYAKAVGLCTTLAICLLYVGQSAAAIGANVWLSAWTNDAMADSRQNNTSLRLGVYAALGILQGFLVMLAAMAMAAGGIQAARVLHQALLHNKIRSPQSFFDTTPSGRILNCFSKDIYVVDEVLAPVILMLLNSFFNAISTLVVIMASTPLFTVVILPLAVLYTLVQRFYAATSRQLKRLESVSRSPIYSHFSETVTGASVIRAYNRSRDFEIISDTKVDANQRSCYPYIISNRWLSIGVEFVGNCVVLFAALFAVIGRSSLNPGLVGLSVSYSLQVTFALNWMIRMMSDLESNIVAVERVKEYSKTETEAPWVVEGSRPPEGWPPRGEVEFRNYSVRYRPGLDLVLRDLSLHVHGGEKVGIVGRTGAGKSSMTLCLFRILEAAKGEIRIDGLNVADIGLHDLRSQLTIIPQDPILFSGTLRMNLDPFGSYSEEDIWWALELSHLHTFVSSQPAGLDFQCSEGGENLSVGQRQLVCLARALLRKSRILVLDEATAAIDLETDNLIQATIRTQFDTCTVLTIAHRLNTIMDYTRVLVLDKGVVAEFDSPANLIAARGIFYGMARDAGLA

By inhibition is commonly meant the change of the read-out against control, counted positive when it falls. A higher inhibition goes with a strong effect. One may read the IC50 as the concentration that gives 50% inhibition. Lower therefore signals higher potency. Turning to `CN1CCc2cc3c(cc2C1O)OCO3` (stereo not drawn) [Hydrastinine, hydrastinine chloride monohydrate], the inhibition at 100 μM in data set [1], in data set [2], in data set [5] (cell line (HEK293 or MDCKII) stably expressing OAT3) and in data set [6] was less than 20% each time. Also, half-maximal inhibition in data set [3] (IC50) was put at 82 µM. In data set [4], the “inhibition at the highest concentration tested” value is “-- (inhibition not observed)”.

Turning to `COc1ccc2c(c1OC)C(=O)O[C@@H]2[C@H]1c2cc3c(cc2CCN1C)OCO3` [(−)-β-Hydrastine, (1R,9S)-(−)-β-Hydrastine], the “inhibition at the highest concentration tested” value in data set [1] (OATP2B1, alkaloids screened at 10 and 100 μM) is listed as “-- (inhibition not observed)”; in data set [2] (MRP3, alkaloids screened at 10 and 100 μM) it was “-- (inhibition not observed)”; in data set [4], “-- (inhibition not observed)”; in data set [6] (BSEP, alkaloids screened at 10 and 100 μM), “-- (inhibition not observed)”. Also, the half-inhibitory concentration (IC50) in data set [3] (MATE1, isolated alkaloids, mean [95% CI], three technical replicates) came out at 110 µM; in data set [5] (OAT3, isolated alkaloids, mean [95% CI], three technical replicates) it was 203 µM.

`COc1ccc2cc3[n+](cc2c1OC)CCc1cc2c(cc1-3)OCO2` [Berberine, berberine chloride]: the inhibition at 100 μM in data set [1], in data set [2] and in data set [6] was less than 20% each time. The IC50 in data set [3] (IC50, MATE1, isolated alkaloids, mean [95% CI], three technical replicates) was < 1 µM and 0.73 µM; in data set [5], 79 µM. Also, in data set [4], the “inhibition at the highest concentration tested” value was “-- (inhibition not observed)”.
